The target in one assay is Carbonic anhydrase 12 (Homo sapiens, UniProt O43570). The experiment in a line: Inhibition of recombinant human membrane bound carbonic anhydrase 12 by stopped-flow CO2 hydration assay.
The target of the next assay is Carbonic anhydrase 2 (Homo sapiens, UniProt P00918). The experiment in a line: Inhibition of recombinant human erythrocyte cytosolic carbonic anhydrase 2 by stopped-flow CO2 hydration assay.
Another assay deals with Carbonic anhydrase 1 (Homo sapiens, UniProt P00915). The experiment in a line: Inhibition of recombinant human erythrocyte cytosolic carbonic anhydrase 1 by stopped-flow CO2 hydration assay.
Sequence of Carbonic anhydrase 1 (P00915 whole entry): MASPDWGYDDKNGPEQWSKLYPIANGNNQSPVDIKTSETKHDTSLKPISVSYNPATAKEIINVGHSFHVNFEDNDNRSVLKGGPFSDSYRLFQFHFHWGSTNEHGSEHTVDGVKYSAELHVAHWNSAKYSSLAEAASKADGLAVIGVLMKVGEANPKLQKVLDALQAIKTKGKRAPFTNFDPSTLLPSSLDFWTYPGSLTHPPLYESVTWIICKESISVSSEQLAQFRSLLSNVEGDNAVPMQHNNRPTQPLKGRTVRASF
The target of another assay is Carbonic anhydrase 9 (Homo sapiens, UniProt Q16790). The assay is described as follows: Inhibition of recombinant human membrane bound carbonic anhydrase 9 by stopped-flow CO2 hydration assay.

Here are results for 20 compounds from ChEMBL document CHEMBL3875222, “Benzenesulfonamide bearing imidazothiadiazole and thiazolotriazole scaffolds as potent tumor associated human carbonic anhydrase IX and XII inhibitors” (Bioorg Med Chem, 2017).

Usually Ki stands for a measure of affinity in units of concentration, obtained from inhibition or displacement.

Sequence of Carbonic anhydrase 12 (O43570 whole entry): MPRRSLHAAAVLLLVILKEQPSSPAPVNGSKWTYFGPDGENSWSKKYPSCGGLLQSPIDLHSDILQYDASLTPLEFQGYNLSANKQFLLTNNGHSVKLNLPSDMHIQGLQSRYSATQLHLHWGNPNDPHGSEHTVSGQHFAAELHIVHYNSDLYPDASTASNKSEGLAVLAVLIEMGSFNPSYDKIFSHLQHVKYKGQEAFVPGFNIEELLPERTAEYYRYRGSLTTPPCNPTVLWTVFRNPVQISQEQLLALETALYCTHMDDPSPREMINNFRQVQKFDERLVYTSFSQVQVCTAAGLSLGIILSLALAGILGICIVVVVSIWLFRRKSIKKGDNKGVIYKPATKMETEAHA

Consider `NS(=O)(=O)c1ccc(-c2nc3scc(-c4ccc(-c5ccccc5)cc4)n3n2)cc1`, for which the inhibitory constant (Ki) on Carbonic anhydrase 12 was found to be 297 nM; on Carbonic anhydrase 2, 22.3 nM; on Carbonic anhydrase 1, 97.5 nM; on Carbonic anhydrase 9 it was 133 nM.
The matching figures for `NS(=O)(=O)c1ccc(-c2nc3scc(-c4cccc(Br)c4)n3n2)cc1`: 41.4 nM, 2570 nM, 9510 nM and 1090 nM.
On to `Cc1ccc(-c2csc3nc(-c4ccc(S(N)(=O)=O)cc4)nn23)cc1`, for which the Ki at Carbonic anhydrase 12 was determined as 23.8 nM; at Carbonic anhydrase 2, 19.5 nM; on Carbonic anhydrase 1 it was 79.8 nM; on Carbonic anhydrase 9, 85.1 nM.
The matching figures for `NS(=O)(=O)c1ccc(-c2nn3cc(-c4ccc(Cl)cc4)nc3s2)cc1`: 80.1 nM, 244 nM, 500 nM and 1210 nM.
For `NS(=O)(=O)c1ccc(-c2nc3scc(-c4ccc([N+](=O)[O-])cc4)n3n2)cc1`, the Ki at Carbonic anhydrase 12 amounted to 35.1 nM; on Carbonic anhydrase 2, 3860 nM; on Carbonic anhydrase 1, 9330 nM; on Carbonic anhydrase 9 it was 189 nM.
`NS(=O)(=O)c1ccc(-c2nn3cc(-c4cccc([N+](=O)[O-])c4)nc3s2)cc1`: the Ki at Carbonic anhydrase 12 was determined as 50.4 nM; at Carbonic anhydrase 2, 274 nM; at Carbonic anhydrase 1 it was 510 nM; on Carbonic anhydrase 9, 172 nM.
In the case of `NS(=O)(=O)c1ccc(-c2nc3scc(-c4ccc(F)cc4)n3n2)cc1`, the Ki came out at 359 nM on Carbonic anhydrase 12, 301 nM at Carbonic anhydrase 2, 662 nM at Carbonic anhydrase 1 and 237 nM on Carbonic anhydrase 9.
The corresponding values for `COc1ccc(-c2cn3nc(-c4ccc(S(N)(=O)=O)cc4)sc3n2)cc1` are 3.8 nM, 830 nM, 849 nM and 2830 nM.
Turning to `NS(=O)(=O)c1ccc(-c2nn3cc(-c4ccc(F)cc4)nc3s2)cc1`, the Ki on Carbonic anhydrase 12 turned out to be 79.4 nM; on Carbonic anhydrase 2, 56.2 nM; at Carbonic anhydrase 1 it was 218 nM; on Carbonic anhydrase 9, 136 nM.
In the case of `Cc1ccc(-c2cn3nc(-c4ccc(S(N)(=O)=O)cc4)sc3n2)cc1`, the inhibition constant Ki on Carbonic anhydrase 12 is 3.3 nM; on Carbonic anhydrase 2 it was 240 nM; on Carbonic anhydrase 1, 243 nM; on Carbonic anhydrase 9, 275 nM.
For `NS(=O)(=O)c1ccc(-c2nc3scc(-c4cccc([N+](=O)[O-])c4)n3n2)cc1`, the Ki on Carbonic anhydrase 12 stood at 362 nM; at Carbonic anhydrase 2 it was 13.2 nM; at Carbonic anhydrase 1, 64.3 nM; on Carbonic anhydrase 9, 203 nM.
Turning to `NS(=O)(=O)c1ccc(-c2nn3cc(-c4cccc(Br)c4)nc3s2)cc1`, the Ki on Carbonic anhydrase 12 is 75.6 nM; at Carbonic anhydrase 2, 67.6 nM; on Carbonic anhydrase 1, 276 nM; on Carbonic anhydrase 9, 251 nM.
The matching figures for `COc1ccc(-c2csc3nc(-c4ccc(S(N)(=O)=O)cc4)nn23)cc1`: 22.3 nM, 15.1 nM, 83.3 nM and 147 nM.
With `NS(=O)(=O)c1ccc(-c2nn3cc(-c4ccc([N+](=O)[O-])cc4)nc3s2)cc1`, the Ki on Carbonic anhydrase 12 was 48.1 nM; on Carbonic anhydrase 2, 369 nM; at Carbonic anhydrase 1, 287 nM; on Carbonic anhydrase 9, 306 nM.
Consider `NS(=O)(=O)c1ccc(-c2nn3cc(-c4ccc(-c5ccccc5)cc4)nc3s2)cc1`, for which the Ki on Carbonic anhydrase 12 came to 62.1 nM; at Carbonic anhydrase 2, 368 nM; on Carbonic anhydrase 1 it was 35.5 nM; at Carbonic anhydrase 9, 143 nM.
Consider `NS(=O)(=O)c1ccc(-c2nc3scc(-c4ccc(Cl)cc4)n3n2)cc1`, for which the inhibitory constant (Ki) amounted to 26.7 nM at Carbonic anhydrase 12, 529 nM on Carbonic anhydrase 2, 943 nM at Carbonic anhydrase 1 and 1680 nM at Carbonic anhydrase 9.
`NS(=O)(=O)c1ccc(-c2nc3scc(-c4ccc(Br)cc4)n3n2)cc1`: the Ki came to 302 nM on Carbonic anhydrase 12, 6350 nM on Carbonic anhydrase 2, 9700 nM at Carbonic anhydrase 1 and 172 nM at Carbonic anhydrase 9.
For the compound `NS(=O)(=O)c1ccc(-c2nn3cc(-c4ccccc4)nc3s2)cc1`, the Ki on Carbonic anhydrase 12 amounted to 4.1 nM; at Carbonic anhydrase 2, 7.3 nM; on Carbonic anhydrase 1, 318 nM; on Carbonic anhydrase 9 it was 208 nM.
As to `NS(=O)(=O)c1ccc(-c2nn3cc(-c4ccc(Br)cc4)nc3s2)cc1`, the Ki was 84.8 nM on Carbonic anhydrase 12, 681 nM on Carbonic anhydrase 2, 624 nM on Carbonic anhydrase 1 and 918 nM on Carbonic anhydrase 9.
In the case of `NS(=O)(=O)c1ccc(-c2nc3scc(-c4ccccc4)n3n2)cc1`, the Ki at Carbonic anhydrase 12 stood at 147 nM; on Carbonic anhydrase 2, 18.1 nM; at Carbonic anhydrase 1 it was 17.9 nM; at Carbonic anhydrase 9, 262 nM.
